Where no end group is shown, it is not given here.
Assays:
C57BL/6J mice [1] = experiment: Acute food intake in lean mice, s.c. (Example 10); format: in vivo, mouse
Experimental: Female C57BL/6J mice were purchased from Charles Rivers. One week before study initiation the mice were single housed with free access to food and water. […] Thirty minutes prior peptide injection, all mice were administered subcutaneously with DDP-4 inhibitor Valine-pyrrolidide (1.5 mg/mouse). Food intake was measured after 1, 2, 4 and 14 hours (FIG. 14A-D).
Results shown are combined data from five studies with an identical study design as described above. Between each study mice had at least one week washout period.

[2] = test system: Diet induced obese C57BL/6NTac male mice; experiment: Acute food intake in diet induced obese mice, s.c. (Example 11); format: in vivo, mouse; details: 15 nmol/kg s.c., conjugate also vs GLP-1(7-36)
Experimental: Diet induced obese C57BL/6NTac male mice were purchased from Taconic and continued on a high fat high sucrose diet with free access to water. One week after arrival, animals were double or single housed. […] Thirty minutes prior peptide injection, all mice were administered subcutaneously with DDP-4 inhibitor Valine-pyrrolidide (3 mg/mouse). Food intake was measured after 1, 2, 4 and 14 hours (FIG. 15A-D).

[3] = Plasma and CSF concentrations after injection into vena cava (RIA GLP-1 assay); format: in vivo; details: rat, 10 min after i.v. injection
Experimental: Male Sprague Dawley rats were purchased from Charles Rivers. Animals were anesthetized by hypnorm/dormicum, and restrained in a stereotactic instrument. […] Blood samples were collected prior to the injection of test compounds and straight after CSF aspiration.
The assay buffer was 100 mM Tris buffer with pH 8.5 containing 1% (wt/vol) human serum albumin, 0.01 mM valine-pyrrolidide and 500 KIE aprotinin (final concentrations). […] Plasma and CSF concentrations were measured after dilution in assay buffer. Free and bound moieties were separated with plasma-coated charcoal.

C57BL/6J mice [4] = experiment: Acute food intake in lean mice, SH(2-11)-Exendin-4 (Example 12); format: in vivo, mouse; details: 15 nmol/kg s.c., conjugate also vs Exendin-4(1-39)
Experimental: Female C57BL/6J mice were purchased from Charles Rivers. One week before study initiation the mice were single housed with free access to food and water. […] Food intake was measured after 1, 2, 4 and 14 hours (FIG. 16A-D).

GPR125 (ADGRA3) [5] = target: T1, GPR125 (ADGRA3) (Homo sapiens, UniProt Q8IWK6); experiment: xCELLigence impedance, MDA231 cells endogenously expressing GPR125; format: cell-based; details: first 30 minutes after stimulation
T1 sequence (Q8IWK6 34-1321): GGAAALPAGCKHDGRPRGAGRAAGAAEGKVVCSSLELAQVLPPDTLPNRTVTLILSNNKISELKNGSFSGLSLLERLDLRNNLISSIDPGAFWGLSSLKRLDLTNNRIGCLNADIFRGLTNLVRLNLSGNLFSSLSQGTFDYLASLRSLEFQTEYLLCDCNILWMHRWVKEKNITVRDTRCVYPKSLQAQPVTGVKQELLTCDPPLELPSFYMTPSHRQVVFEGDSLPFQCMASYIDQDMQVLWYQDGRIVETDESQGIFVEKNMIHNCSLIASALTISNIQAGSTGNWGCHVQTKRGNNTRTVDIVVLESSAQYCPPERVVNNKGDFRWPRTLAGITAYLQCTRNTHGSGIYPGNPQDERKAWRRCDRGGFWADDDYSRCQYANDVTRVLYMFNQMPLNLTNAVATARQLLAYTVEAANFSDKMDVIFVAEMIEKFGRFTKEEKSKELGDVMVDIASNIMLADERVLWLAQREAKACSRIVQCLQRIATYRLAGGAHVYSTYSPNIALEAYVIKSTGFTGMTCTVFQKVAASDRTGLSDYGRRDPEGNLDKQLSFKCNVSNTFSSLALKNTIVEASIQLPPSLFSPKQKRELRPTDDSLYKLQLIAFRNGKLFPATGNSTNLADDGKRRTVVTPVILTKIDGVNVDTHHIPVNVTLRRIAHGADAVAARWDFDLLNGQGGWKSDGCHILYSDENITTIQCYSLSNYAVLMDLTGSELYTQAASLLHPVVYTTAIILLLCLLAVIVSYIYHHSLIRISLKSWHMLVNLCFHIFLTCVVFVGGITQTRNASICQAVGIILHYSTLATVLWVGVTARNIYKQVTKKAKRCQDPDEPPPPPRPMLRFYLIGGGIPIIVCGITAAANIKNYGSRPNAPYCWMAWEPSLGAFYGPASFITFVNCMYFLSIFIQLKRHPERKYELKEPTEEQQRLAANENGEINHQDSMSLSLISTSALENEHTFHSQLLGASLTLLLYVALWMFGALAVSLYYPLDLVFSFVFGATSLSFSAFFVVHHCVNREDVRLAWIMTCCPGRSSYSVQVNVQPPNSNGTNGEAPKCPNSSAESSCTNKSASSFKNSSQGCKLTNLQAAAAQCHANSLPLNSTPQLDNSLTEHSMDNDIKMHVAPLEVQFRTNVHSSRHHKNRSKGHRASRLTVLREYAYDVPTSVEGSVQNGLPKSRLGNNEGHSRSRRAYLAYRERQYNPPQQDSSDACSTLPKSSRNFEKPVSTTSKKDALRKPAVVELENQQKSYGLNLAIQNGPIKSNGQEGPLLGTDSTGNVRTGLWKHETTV
Experimental: (§1) Once the cells are added to the E-plate they are allowed to adhere and proliferate for 18 hours during which the impedance is measured every 15 minutes generating the initial adhesion and growth curve. Upon stimulation the measurements are change to rapid detection every 15 seconds followed by every minute and every 5 minutes during the first hour after stimulation.

GPR125 (ADGRA3) [6] = target: T1, GPR125 (ADGRA3); experiment: xCELLigence impedance, HEK293 Flp-In T-rex cells with full length GPR125; format: cell-based; design: HEK293 Flp-In T-rex cells stably transfected with full length (FL) GPR125; expressed in transfected cells; host or cells: HEK293 Flp-In T-rex cells; details: HEK293 Flp-In T-rex cells stably transfected with full length (FL) GPR125, first 30 minutes after stimulation
Experimental: as §1

[7] = target: T2, GPR125 (ADGRA3) in mouse choroid plexus (mouse, UniProt Q7TT36 28-1310); experiment: fluorescence microscopy of mouse brain cryosections, WT against GPR125 KO (KO stained only at 22 µM and 11 µM)
T2 construct: whole, on cells
T2 sequence: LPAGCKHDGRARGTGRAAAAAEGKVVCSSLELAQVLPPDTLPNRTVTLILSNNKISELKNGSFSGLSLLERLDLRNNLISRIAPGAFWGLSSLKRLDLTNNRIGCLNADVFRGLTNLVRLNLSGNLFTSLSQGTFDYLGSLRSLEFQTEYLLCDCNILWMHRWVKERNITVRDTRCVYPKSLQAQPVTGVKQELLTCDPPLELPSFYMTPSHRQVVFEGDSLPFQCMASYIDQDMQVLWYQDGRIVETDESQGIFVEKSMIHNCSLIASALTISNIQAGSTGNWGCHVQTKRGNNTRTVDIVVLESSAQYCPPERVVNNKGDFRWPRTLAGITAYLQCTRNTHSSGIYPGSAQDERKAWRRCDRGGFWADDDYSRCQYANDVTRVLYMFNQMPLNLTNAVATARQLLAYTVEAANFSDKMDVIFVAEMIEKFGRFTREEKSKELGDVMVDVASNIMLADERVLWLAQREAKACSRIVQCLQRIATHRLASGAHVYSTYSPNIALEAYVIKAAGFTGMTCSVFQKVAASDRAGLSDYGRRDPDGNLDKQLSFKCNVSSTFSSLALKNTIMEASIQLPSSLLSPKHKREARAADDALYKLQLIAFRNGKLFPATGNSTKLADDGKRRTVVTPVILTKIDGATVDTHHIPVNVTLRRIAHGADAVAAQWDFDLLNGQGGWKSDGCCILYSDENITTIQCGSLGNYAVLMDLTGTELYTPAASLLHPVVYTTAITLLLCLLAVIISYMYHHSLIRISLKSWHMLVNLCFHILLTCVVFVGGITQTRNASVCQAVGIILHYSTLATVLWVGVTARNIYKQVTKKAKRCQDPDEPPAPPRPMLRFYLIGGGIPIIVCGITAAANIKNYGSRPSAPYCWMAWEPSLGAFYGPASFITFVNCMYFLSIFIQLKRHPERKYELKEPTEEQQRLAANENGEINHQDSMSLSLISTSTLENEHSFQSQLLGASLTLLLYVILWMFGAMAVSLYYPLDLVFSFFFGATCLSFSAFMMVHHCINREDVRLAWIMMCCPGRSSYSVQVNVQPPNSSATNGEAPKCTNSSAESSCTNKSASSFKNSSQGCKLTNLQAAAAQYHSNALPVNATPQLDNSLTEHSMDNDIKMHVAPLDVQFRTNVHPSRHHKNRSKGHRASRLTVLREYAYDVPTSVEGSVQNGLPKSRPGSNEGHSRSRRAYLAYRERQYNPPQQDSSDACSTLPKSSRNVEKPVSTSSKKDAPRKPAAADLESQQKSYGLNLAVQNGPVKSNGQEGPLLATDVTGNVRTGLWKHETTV

Molecule: CC[C@H](C)[C@H](NC(=O)[C@H](Cc1ccccc1)NC(=O)[C@H](CCC(=O)O)NC(=O)[C@H](CCCCN)NC(=O)[C@H](C)NC(=O)[C@H](C)NC(=O)[C@H](CCC(N)=O)NC(=O)CNC(=O)[C@H](CCC(=O)O)NC(=O)[C@H](CC(C)C)NC(=O)[C@H](Cc1ccc(O)cc1)NC(=O)[C@H](CO)NC(=O)[C@H](CO)NC(=O)[C@@H](NC(=O)[C@H](CC(=O)O)NC(=O)[C@H](CO)NC(=O)[C@@H](NC(=O)[C@H](Cc1ccccc1)NC(=O)[C@@H](NC(=O)CNC(=O)[C@H](CCC(=O)O)NC(=O)[C@H](C)NC(=O)[C@@H](N)Cc1c[nH]cn1)[C@@H](C)O)[C@@H](C)O)C(C)C)C(=O)N[C@@H](C)C(=O)N[C@@H](Cc1c[nH]c2ccccc12)C(=O)N[C@@H](CC(C)C)C(=O)N[C@H](C(=O)N[C@@H](CCCCN)C(=O)NCC(=O)N[C@@H](CCCNC(=N)N)C(N)=O)C(C)C [GLP-1(7-36), GLP-1 (7-36) amide, reference compound]
- food intake compared to vehicle (C57BL/6J mice [1]; 15 nmol/kg s.c., after 1 hour): did not show a significant decrease
- food intake compared to vehicle (C57BL/6J mice [1]; 15 nmol/kg s.c., after 2 hours): did not show a significant decrease
- food intake compared to vehicle (C57BL/6J mice [1]; 15 nmol/kg s.c., after 4 hours): did not show a significant decrease
- food intake compared to vehicle (C57BL/6J mice [1]; 15 nmol/kg s.c., after 14 hours): did not show a significant decrease
- food intake compared to vehicle (C57BL/6J mice [1]; 30 nmol/kg s.c., after 1 hour): decreased their food intake significantly
- food intake compared to vehicle (C57BL/6J mice [1]; 30 nmol/kg s.c., after 2 hours): decreased their food intake significantly
- food intake compared to vehicle (C57BL/6J mice [1]; 30 nmol/kg s.c., after 4 hours): less significant
- food intake compared to vehicle ([2]; after 1 hour): decreased food intake
- food intake compared to vehicle ([2]; after 2 hours): decreased food intake
- food intake compared to vehicle ([2]; after 4 hours): not present
- detectable in CSF by RIA GLP-1 assay [3]: detectable

Molecule: Exendin-4 [Exendin-4(1-39)]
- food intake compared to vehicle (C57BL/6J mice [4]; after 1 hour): decreased food intake
- food intake compared to vehicle (C57BL/6J mice [4]; after 2 hours): decreased food intake
- food intake compared to vehicle (C57BL/6J mice [4]; after 4 hours): less significant

Molecule: SH1-9: MPAIQPPLY, MuV SH protein fragment (1-9) (Genotype G Genbank ID QFO38283.1 1-9)
- GPR125 signaling, area under the curve (AUC) of impedance (GPR125 (ADGRA3) [5]): affected GPR125 signaling
- GPR125 signaling, area under the curve (AUC) of impedance (GPR125 (ADGRA3) [6]): affected GPR125 signaling

Molecule: SH1-57: whole mumps virus SH protein 1-57 (MPAIQPPLYLTFLLLILLYLIITLYVWIILTITYKTAVRHAALYQRSFFRWSFDHSL; Genotype G Genbank ID QFO38283.1 1-57; (1)..(57) Genotype G Genbank ID QFO38283.1 1-57)
- GPR125 signaling, area under the curve (AUC) of impedance (GPR125 (ADGRA3) [5]): affected GPR125 signaling
- GPR125 signaling, area under the curve (AUC) of impedance (GPR125 (ADGRA3) [6]): affected GPR125 signaling

Molecule: SH2-9: PAIQPPLY, MuV SH protein fragment (2-9) (Genotype G Genbank ID QFO38283.1 2-9)
- GPR125 signaling, area under the curve (AUC) of impedance (GPR125 (ADGRA3) [5]): affected GPR125 signaling
- GPR125 signaling, area under the curve (AUC) of impedance (GPR125 (ADGRA3) [6]): affected GPR125 signaling

B1: TAMRA labelled SH-protein (SEQ ID NO: 129) (other)
chain: MPAIQPPLYLTFLLLILLYLIITLYVWIILTVTYKTAVRHAALYQRSFFHWSFDHSL
modifications: also: TAMRA labelled
notes: also called TAMRA-functionalized SH protein
- binding result [7]: binds
